Assay results: PubChem BioAssay (NCI)
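A five-concentration, 48-hour dose response in 96-well plates underlies each endpoint, interpolated linearly between surrounding concentrations. The concentration for 50% growth inhibition is given as GI50. At the TGI there is no net growth.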

Legend:
Test in all cases: NCI tumour cell line growth inhibition, 48 h
[1] = test system: KM12 colon
[2] = test system: NCI/ADR-RES ovarian
[3] = test system: NCI-H226 lung
[4] = test system: TK-10 renal
[5] = test system: T-47D breast
[6] = test system: HCT-116 colon
[7] = test system: SR leukemia
[8] = test system: U251 CNS
[9] = test system: 786-0 renal
[10] = test system: SK-MEL-28 melanoma
[11] = test system: UO-31 renal
[12] = test system: OVCAR-5 ovarian
[13] = test system: MDA-MB-231 breast
[14] = test system: UACC-257 melanoma
[15] = test system: LOX IMVI melanoma
[16] = test system: EKVX NSCLC
[17] = test system: CAKI-1 renal
[18] = test system: NCI-H23 lung
[19] = test system: OVCAR-4 ovarian
[20] = test system: RPMI-8226 leukemia
[21] = test system: SW-620 colon
[22] = test system: SK-OV-3 ovarian
[23] = test system: HOP-92 NSCLC
[24] = test system: HS 578T breast
[25] = test system: NCI-H460 lung
[26] = test system: OVCAR-8 ovarian
[27] = test system: OVCAR-3 ovarian
[28] = test system: A498 renal
[29] = test system: ACHN renal
[30] = test system: M14 melanoma
[31] = test system: MDA-MB-435
[32] = test system: HOP-62 NSCLC
[33] = test system: SNB-75 CNS
[34] = test system: BT-549 breast
[35] = test system: MCF7 breast
[36] = test system: SK-MEL-5 melanoma
[37] = test system: K-562 leukemia
[38] = test system: CCRF-CEM leukemia
[39] = test system: SF-268 CNS
[40] = test system: SF-295 CNS
[41] = test system: MOLT-4 leukemia
[42] = test system: A549 NSCLC
[43] = test system: SN12C renal
[44] = test system: HL-60(TB) leukemia
[45] = test system: COLO 205 colon
[46] = test system: IGROV1 ovarian
[47] = test system: NCI-H522 lung
[48] = test system: HCT-15 colon
[49] = test system: DU-145 prostate
[50] = test system: HCC-2998 colon
[51] = test system: SF-539 CNS
[52] = test system: RXF 393 renal
[53] = test system: MALME-3M melanoma
[54] = test system: SNB-19 CNS
[55] = test system: PC-3 prostate
[56] = test system: HT29 colon
[57] = test system: SK-MEL-2 melanoma
[58] = test system: UACC-62 melanoma

O=C1c2ccccc2C(=O)c2c1ccc1[nH]c(CCl)nc21
GI50 [1]: 3.14 µM | TGI [1]: 10.8 µM | GI50 [2]: 2.76 µM | TGI [2]: 10.4 µM | GI50 [3]: 2.56 µM | TGI [3]: 7.96 µM | GI50 [4]: 2.91 µM | TGI [4]: 9.79 µM | GI50 [5]: 1.96 µM | TGI [5]: 4.37 µM | GI50 [6]: 1.85 µM | TGI [6]: 4.7 µM | GI50 [7]: 2.25 µM | TGI [7]: 13.8 µM | GI50 [8]: 2.21 µM | TGI [8]: 6.56 µM | GI50 [9]: 2.91 µM | TGI [9]: 9.38 µM | GI50 [10]: 6.58 µM | TGI [10]: 18.8 µM | GI50 [11]: 2.72 µM | TGI [11]: 9.22 µM | GI50 [12]: 10.2 µM | TGI [12]: 24.5 µM | GI50 [13]: 3.74 µM | TGI [13]: 15.3 µM | GI50 [14]: 4.23 µM | TGI [14]: 15.1 µM | GI50 [15]: 2.2 µM | TGI [15]: 5.22 µM | GI50 [16]: 2.59 µM | TGI [16]: 10.7 µM | GI50 [17]: 2.61 µM | TGI [17]: 9.89 µM | GI50 [18]: 1.65 µM | TGI [18]: 3.6 µM | GI50 [19]: 3.05 µM | TGI [19]: 11.2 µM | GI50 [20]: 1.83 µM | TGI [20]: 5.87 µM | GI50 [21]: 1.56 µM | TGI [21]: 3.3 µM | GI50 [22]: 3.67 µM | TGI [22]: 9.08 µM | GI50 [23]: 1.58 µM | TGI [23]: 6.26 µM | GI50 [24]: 2.94 µM | TGI [24]: 14.7 µM | GI50 [25]: 3.97 µM | TGI [25]: 15.1 µM | GI50 [26]: 3.68 µM | TGI [26]: 15.7 µM | GI50 [27]: 1.64 µM | TGI [27]: 3.03 µM | GI50 [28]: 1.27 µM | TGI [28]: 7.06 µM | GI50 [29]: 2.27 µM | TGI [29]: 6.49 µM | GI50 [30]: 9.97 µM | TGI [30]: 22.8 µM | GI50 [31]: 3.37 µM | TGI [31]: 11.8 µM | GI50 [32]: 3.12 µM | TGI [32]: 9.42 µM | GI50 [33]: 1.56 µM | TGI [33]: 10.8 µM | GI50 [34]: 3.52 µM | TGI [34]: 12.7 µM | GI50 [35]: 1.75 µM | TGI [35]: 4.2 µM | GI50 [36]: 1.68 µM | TGI [36]: 3.07 µM | GI50 [37]: 2.98 µM | TGI [37]: 17 µM | GI50 [38]: 2.19 µM | TGI [38]: 6.42 µM | GI50 [39]: 2.22 µM | TGI [39]: 8.1 µM | GI50 [40]: 7.99 µM | TGI [40]: 20.6 µM | GI50 [41]: 1.68 µM | TGI [41]: 8.04 µM | GI50 [42]: 2.81 µM | TGI [42]: 10.2 µM | GI50 [43]: 2.08 µM | TGI [43]: 4.87 µM | GI50 [44]: 2.64 µM | TGI [44]: 7 µM | GI50 [45]: 2.54 µM | TGI [45]: 8.62 µM | GI50 [46]: 2.03 µM | TGI [46]: 6.59 µM | GI50 [47]: 1.63 µM | TGI [47]: 3.53 µM | GI50 [48]: 1.45 µM | TGI [48]: 3.1 µM | GI50 [49]: 4.27 µM | TGI [49]: 14.5 µM | GI50 [50]: 3.41 µM | TGI [50]: 12.7 µM | GI50 [51]: 3.16 µM | TGI [51]: 11.6 µM | GI50 [52]: 1.86 µM | TGI [52]: 6.17 µM | GI50 [53]: 2.82 µM | TGI [53]: 10.9 µM | GI50 [54]: 3.52 µM | TGI [54]: 13.6 µM | GI50 [55]: 2.23 µM | TGI [55]: 7.01 µM | GI50 [56]: 1.89 µM | TGI [56]: 4.77 µM | GI50 [57]: 3.26 µM | TGI [57]: 12.2 µM | GI50 [58]: 2.06 µM | TGI [58]: 4.99 µM

O=[n+]1c(CBr)c(CBr)n([O-])c2ccccc21
GI50 [1]: 17.1 µM | TGI [1]: 31.5 µM | GI50 [2]: 14.5 µM | TGI [2]: 33.7 µM | GI50 [3]: 11.7 µM | TGI [3]: 30.7 µM | GI50 [4]: 1.97 µM | TGI [4]: 4.17 µM | GI50 [5]: 2.58 µM | TGI [5]: 6.8 µM | GI50 [6]: 3.94 µM | TGI [6]: 14.5 µM | GI50 [7]: 2.82 µM | TGI [7]: > 100 µM | GI50 [8]: 14.5 µM | TGI [8]: 29.8 µM | GI50 [9]: 11.9 µM | TGI [9]: 25.7 µM | GI50 [10]: 14.6 µM | TGI [10]: 28.1 µM | GI50 [11]: 1.44 µM | TGI [11]: 3 µM | GI50 [12]: 14 µM | TGI [12]: 27.1 µM | GI50 [13]: 11.9 µM | TGI [13]: 24.5 µM | GI50 [14]: 13.6 µM | TGI [14]: 27.6 µM | GI50 [15]: 1.8 µM | TGI [15]: 3.48 µM | GI50 [16]: 15.3 µM | TGI [16]: 29 µM | GI50 [17]: 12 µM | TGI [17]: 24.5 µM | GI50 [18]: 14.8 µM | TGI [18]: 29.4 µM | GI50 [19]: 6.81 µM | TGI [19]: 20.4 µM | GI50 [20]: 2.73 µM | TGI [20]: 8.39 µM | GI50 [21]: 1.86 µM | TGI [21]: 3.69 µM | GI50 [22]: 24.9 µM | TGI [22]: > 100 µM | GI50 [23]: 4.61 µM | TGI [23]: 17.8 µM | GI50 [24]: 17 µM | TGI [24]: 45.3 µM | GI50 [25]: 16.9 µM | TGI [25]: 34.6 µM | GI50 [26]: 15.2 µM | TGI [26]: 31 µM | GI50 [27]: 1.79 µM | TGI [27]: 3.25 µM | GI50 [28]: 41.3 µM | TGI [28]: > 100 µM | GI50 [29]: 1.76 µM | TGI [29]: 3.18 µM | GI50 [30]: 4.65 µM | TGI [30]: 17.6 µM | GI50 [31]: 12 µM | TGI [31]: 25 µM | GI50 [32]: 17.8 µM | TGI [32]: 37.5 µM | GI50 [33]: 10.6 µM | TGI [33]: 47.6 µM | GI50 [34]: 1.85 µM | TGI [34]: 5.13 µM | GI50 [35]: 3.11 µM | TGI [35]: 12.4 µM | GI50 [36]: 15.9 µM | TGI [36]: 29.5 µM | GI50 [37]: 3.46 µM | TGI [37]: 17.2 µM | GI50 [38]: 2.79 µM | TGI [38]: 14.2 µM | GI50 [39]: 15.9 µM | TGI [39]: 33.6 µM | GI50 [40]: 17.2 µM | TGI [40]: 36 µM | GI50 [41]: 3.62 µM | TGI [41]: 14.7 µM | GI50 [42]: 17.4 µM | TGI [42]: 35.6 µM | GI50 [43]: 11 µM | TGI [43]: 24.3 µM | GI50 [44]: 2.26 µM | TGI [44]: 5.8 µM | GI50 [45]: 2.04 µM | TGI [45]: 3.99 µM | GI50 [46]: 10.5 µM | TGI [46]: 31 µM | GI50 [47]: 1.74 µM | TGI [47]: 3.17 µM | GI50 [48]: 1.82 µM | TGI [48]: 3.48 µM | GI50 [49]: 5.8 µM | TGI [49]: 18.4 µM | GI50 [50]: 16.9 µM | TGI [50]: 31 µM | GI50 [51]: 13.3 µM | TGI [51]: 26.3 µM | GI50 [52]: 4.66 µM | TGI [52]: 16.9 µM | GI50 [53]: 1.47 µM | TGI [53]: 3.15 µM | GI50 [54]: 17.6 µM | TGI [54]: 38.3 µM | GI50 [55]: 13.4 µM | TGI [55]: 31.1 µM | GI50 [56]: 1.91 µM | TGI [56]: 3.49 µM | GI50 [57]: 15.3 µM | TGI [57]: 29.6 µM | GI50 [58]: 14.1 µM | TGI [58]: 27.4 µM
